This note sets out measurements from ChEMBL document CHEMBL1151158, “New nitrogenous Germacranes from a Thai marine sponge, Axinyssa n. sp” (2004).

Each structure is given as a SMILES string. Activity calls are given as the source filed them. No cut-off for these calls is given here.

Common to all, as to type: functional
Assay [1] relates to Staphylococcus aureus. Nature of the assay: Antimicrobial activity against Staphylococcus aureus ATCC 25923 at 500 ug/disk after 24 hrs by agar disk diffusion method. A general note: A growth-free zone around the sample is the usual read-out of agar diffusion tests.
For assay [2], the system named is Bacillus subtilis. Nature of the assay: Antimicrobial activity against Bacillus subtilis ATCC 6633 at 500 ug/disk after 24 hrs by agar disk diffusion method.
For assay [3], the system named is Candida albicans. Nature of the assay: Antimicrobial activity against Candida albicans ATCC 10231 at 500 ug/disk after 24 hrs by agar disk diffusion method.

Take `C/C1=C/C[C@H](C(C)(C)NC(=O)NC(C)(C)[C@H]2C/C=C(/C)CC/C=C(/C)CC2)CC/C(C)=C\CC1`: the result in assay [1], in assay [2] and in assay [3] was inactive.

As to `C/C1=C/C[C@H](C(C)(C)N)CC/C(C)=C\CC1`, the zone of inhibition at 500 µg/disc in assay [1] (ATCC 25923, 24 h, read-out: IZ) was found to be 23 mm; in assay [2] (ATCC 6633, 24 h, read-out: IZ) it was 22 mm; in assay [3] (ATCC 10231, 24 h, read-out: IZ) it was 27 mm.
